# “And” between values parts separate entries of the source, which are not always exact repeats. Equal values may be shown once. Read-outs that look alike come from different tables or passages of the source.
# Tests used:
# ROS1 = ROS1 (Homo sapiens, UniProt P08922); experiment: Biochemical kinase assay, ROS1
# Experimental: (§1) Biochemical kinase assay was performed by methods previously reported. Kinase reactions of all test compounds except 10g were carried out at 10 µM ATP. Kinase reaction of 10g was performed at three different concentrations of ATP (10/50/100 µM).
# c-Src = c-Src (Homo sapiens, UniProt P12931); experiment: Biochemical kinase assay, c-Src
# Experimental: as §1
# ALK-L1196M = ALK-L1196M (Homo sapiens, UniProt Q9UM73, L1196M); experiment: Radiometric biochemical kinase assay, ALK-L1196M; details: radiometric kinase assay, 10 µM ATP
# Experimental: as §1
# ALK-F1174L = ALK-F1174L (Homo sapiens, UniProt Q9UM73, F1174L); experiment: Radiometric biochemical kinase assay, ALK-F1174L
# Experimental: as §1
# [1] = biological target: IRK (insulin receptor kinase) (Homo sapiens, UniProt P06213); experiment: Biochemical kinase assay, IRK
# Experimental: as §1
# c-Met = c-Met (Homo sapiens, UniProt P08581); experiment: Biochemical kinase assay, c-Met
# Experimental: as §1
# ALK-C1156Y = ALK-C1156Y (Homo sapiens, UniProt Q9UM73, C1156Y); experiment: Radiometric biochemical kinase assay, ALK-C1156Y
# Experimental: as §1
# ALK-wt = ALK-wt (Homo sapiens, UniProt Q9UM73); experiment: Radiometric biochemical kinase assay, ALK-wt
# Experimental: as §1
# Sequence of ALK-wt (Q9UM73 19-1620): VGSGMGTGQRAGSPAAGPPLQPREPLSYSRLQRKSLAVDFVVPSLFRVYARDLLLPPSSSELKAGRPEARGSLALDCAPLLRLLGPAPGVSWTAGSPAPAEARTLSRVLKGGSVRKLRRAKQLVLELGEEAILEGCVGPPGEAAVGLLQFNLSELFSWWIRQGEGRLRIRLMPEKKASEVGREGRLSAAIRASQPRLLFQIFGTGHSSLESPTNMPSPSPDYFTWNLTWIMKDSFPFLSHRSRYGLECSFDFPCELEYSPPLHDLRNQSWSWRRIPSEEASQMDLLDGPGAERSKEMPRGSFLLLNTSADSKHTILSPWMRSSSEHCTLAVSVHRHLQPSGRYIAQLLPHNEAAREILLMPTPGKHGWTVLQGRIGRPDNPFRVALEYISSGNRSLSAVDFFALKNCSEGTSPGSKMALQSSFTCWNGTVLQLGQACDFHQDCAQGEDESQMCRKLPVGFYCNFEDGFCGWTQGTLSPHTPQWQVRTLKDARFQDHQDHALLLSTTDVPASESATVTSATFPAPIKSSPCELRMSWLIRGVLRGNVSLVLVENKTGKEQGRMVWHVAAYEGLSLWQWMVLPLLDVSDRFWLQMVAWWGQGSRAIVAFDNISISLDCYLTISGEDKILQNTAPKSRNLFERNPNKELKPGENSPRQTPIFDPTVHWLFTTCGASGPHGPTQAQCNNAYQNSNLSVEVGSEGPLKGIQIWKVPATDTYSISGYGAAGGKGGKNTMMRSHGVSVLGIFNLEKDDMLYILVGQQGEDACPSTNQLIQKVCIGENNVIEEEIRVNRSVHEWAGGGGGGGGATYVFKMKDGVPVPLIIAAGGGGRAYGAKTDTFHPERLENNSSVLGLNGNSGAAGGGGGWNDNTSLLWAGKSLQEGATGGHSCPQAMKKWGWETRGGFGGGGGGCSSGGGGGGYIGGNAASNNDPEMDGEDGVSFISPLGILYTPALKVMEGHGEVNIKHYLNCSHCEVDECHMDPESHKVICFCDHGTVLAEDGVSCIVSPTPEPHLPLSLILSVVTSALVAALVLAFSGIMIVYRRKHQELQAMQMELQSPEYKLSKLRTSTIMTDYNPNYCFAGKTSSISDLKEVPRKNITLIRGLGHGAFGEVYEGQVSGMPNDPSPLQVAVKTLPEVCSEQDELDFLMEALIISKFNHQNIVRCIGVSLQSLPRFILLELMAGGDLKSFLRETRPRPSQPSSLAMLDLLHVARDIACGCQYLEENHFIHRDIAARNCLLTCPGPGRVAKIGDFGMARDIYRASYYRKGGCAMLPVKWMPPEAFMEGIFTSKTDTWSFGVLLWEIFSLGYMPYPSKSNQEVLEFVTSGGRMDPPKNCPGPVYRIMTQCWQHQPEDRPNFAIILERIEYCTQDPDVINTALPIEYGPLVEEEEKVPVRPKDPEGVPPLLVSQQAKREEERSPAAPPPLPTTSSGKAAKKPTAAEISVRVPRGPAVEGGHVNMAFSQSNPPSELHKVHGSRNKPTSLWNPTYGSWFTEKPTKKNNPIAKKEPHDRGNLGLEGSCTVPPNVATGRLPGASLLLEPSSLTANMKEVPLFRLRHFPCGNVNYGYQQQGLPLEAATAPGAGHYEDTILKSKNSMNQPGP
# Sequence of c-Met (P08581 25-1390): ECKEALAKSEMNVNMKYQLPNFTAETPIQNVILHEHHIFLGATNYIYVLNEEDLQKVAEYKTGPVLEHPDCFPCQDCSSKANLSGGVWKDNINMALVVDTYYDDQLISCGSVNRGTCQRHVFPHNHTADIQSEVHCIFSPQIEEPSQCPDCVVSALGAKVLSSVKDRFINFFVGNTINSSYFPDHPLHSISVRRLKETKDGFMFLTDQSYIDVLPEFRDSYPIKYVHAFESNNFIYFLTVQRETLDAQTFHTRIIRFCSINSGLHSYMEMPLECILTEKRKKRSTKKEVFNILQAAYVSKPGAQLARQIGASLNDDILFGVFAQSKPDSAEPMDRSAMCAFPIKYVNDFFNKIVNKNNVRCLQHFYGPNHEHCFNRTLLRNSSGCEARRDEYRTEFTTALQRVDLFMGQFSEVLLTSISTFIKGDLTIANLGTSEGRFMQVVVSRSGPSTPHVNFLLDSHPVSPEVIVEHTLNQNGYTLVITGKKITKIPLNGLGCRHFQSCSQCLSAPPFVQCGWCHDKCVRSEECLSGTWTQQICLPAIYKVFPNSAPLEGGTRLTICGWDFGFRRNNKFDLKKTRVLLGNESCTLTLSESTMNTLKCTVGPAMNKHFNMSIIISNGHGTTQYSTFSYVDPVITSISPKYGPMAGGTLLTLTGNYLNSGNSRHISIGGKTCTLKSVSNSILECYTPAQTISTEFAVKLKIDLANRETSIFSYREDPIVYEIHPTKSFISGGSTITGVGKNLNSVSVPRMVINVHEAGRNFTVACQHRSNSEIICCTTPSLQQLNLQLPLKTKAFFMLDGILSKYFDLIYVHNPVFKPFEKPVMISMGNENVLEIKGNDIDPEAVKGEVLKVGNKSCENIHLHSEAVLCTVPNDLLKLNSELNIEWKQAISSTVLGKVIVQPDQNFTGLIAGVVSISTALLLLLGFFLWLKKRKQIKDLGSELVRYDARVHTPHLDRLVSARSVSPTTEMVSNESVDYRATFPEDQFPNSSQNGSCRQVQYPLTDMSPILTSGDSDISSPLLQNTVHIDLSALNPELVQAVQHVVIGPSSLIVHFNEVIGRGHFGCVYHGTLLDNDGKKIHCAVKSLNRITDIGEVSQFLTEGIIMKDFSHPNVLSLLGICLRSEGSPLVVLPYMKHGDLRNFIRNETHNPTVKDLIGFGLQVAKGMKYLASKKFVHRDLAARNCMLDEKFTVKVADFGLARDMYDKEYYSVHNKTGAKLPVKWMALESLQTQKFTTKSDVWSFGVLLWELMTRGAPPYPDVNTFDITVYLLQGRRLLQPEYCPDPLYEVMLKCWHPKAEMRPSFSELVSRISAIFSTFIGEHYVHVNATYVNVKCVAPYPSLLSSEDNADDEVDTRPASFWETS
# Sequence of c-Src (P12931 whole entry): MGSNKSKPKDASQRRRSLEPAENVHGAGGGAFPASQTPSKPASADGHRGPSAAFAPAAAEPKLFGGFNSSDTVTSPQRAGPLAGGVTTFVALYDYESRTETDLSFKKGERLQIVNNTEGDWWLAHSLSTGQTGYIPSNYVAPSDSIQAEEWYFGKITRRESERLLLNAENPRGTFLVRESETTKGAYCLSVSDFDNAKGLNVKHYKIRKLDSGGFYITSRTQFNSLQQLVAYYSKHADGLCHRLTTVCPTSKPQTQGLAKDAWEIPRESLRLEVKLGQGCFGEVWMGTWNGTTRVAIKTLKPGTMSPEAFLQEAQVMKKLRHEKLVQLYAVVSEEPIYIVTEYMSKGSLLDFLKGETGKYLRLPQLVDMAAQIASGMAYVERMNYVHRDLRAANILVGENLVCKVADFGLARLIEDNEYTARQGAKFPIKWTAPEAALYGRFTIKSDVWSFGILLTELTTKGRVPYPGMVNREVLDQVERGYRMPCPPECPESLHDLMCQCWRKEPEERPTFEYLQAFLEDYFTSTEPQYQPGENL
# Sequence of ALK-F1174L (Q9UM73 19-1620 F1174L): as the sequence (Q9UM73 19-1620) above, with F1156L counted along it
# Sequence of IRK (insulin receptor kinase) (P06213 28-1382): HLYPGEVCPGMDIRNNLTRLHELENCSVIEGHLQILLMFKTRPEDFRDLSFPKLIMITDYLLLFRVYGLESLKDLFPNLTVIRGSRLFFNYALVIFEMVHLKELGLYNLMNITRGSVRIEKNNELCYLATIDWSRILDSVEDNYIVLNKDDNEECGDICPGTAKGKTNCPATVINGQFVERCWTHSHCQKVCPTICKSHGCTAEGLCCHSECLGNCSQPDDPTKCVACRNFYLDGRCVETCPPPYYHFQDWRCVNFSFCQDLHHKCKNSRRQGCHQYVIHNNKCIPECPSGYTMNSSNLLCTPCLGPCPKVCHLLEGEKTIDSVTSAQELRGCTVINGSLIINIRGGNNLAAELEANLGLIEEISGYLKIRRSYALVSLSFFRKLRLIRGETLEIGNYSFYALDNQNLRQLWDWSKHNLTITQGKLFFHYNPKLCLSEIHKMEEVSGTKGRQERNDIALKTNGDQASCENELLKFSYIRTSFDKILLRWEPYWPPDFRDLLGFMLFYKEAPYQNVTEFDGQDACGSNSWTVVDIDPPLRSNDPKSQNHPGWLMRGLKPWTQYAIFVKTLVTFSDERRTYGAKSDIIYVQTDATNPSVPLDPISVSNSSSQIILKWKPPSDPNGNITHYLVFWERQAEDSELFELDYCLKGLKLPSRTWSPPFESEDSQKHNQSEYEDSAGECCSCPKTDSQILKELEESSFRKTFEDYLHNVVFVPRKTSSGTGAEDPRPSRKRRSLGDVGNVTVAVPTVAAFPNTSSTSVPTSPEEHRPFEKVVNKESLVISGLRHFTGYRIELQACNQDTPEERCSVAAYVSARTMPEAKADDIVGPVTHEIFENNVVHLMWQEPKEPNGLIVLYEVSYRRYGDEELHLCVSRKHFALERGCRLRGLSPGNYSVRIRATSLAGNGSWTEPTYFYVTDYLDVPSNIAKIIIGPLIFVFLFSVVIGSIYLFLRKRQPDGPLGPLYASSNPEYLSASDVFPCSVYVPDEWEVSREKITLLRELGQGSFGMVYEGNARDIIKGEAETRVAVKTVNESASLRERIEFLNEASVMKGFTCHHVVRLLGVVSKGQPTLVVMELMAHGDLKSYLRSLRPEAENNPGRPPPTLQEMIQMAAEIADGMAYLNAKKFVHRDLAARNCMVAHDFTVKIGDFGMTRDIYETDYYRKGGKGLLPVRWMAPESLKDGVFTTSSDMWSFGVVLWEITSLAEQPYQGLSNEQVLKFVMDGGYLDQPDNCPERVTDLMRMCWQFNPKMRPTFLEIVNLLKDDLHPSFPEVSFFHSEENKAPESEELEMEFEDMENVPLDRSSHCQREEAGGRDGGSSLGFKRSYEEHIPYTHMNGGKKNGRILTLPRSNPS
# Sequence of ALK-C1156Y (Q9UM73 19-1620 C1156Y): as the sequence (Q9UM73 19-1620) above, with C1138Y counted along it
# Sequence of ALK-L1196M (Q9UM73 19-1620 L1196M): as the sequence (Q9UM73 19-1620) above, with L1178M counted along it
compound,measurement,setting,value
"CN1CCN(c2ccc(C(=O)Nc3n[nH]c4ncc(S(=O)(=O)c5cccc(F)c5)cc34)cc2)CC1 [10g, N-(5-((3-Fluorophenyl)sulfonyl)-1H-pyrazolo[3,4-b]pyridin-3-yl)-4–(4-methylpiperazin-1-yl)benzamide]",IC50,ROS1,< 1 nM
same,IC50,c-Src,7 nM
same,IC50,ALK-L1196M,< 0.5 nM
same,IC50,ALK-F1174L,8.17 nM
same,IC50,[1],404 nM
same,"selectivity, more potent against ALK-wt than c-Met",c-Met; ALK-wt vs c-Met IC50,over 7000 fold
same,IC50,c-Met; biochemical kinase assay,3780 nM
same,IC50,ALK-C1156Y,1.81 nM
same,change in IC50 against ALK-wt on 10-fold increase in ATP concentration,ALK-wt; 10 vs 100 µM ATP,50 fold
same,IC50,"ALK-wt; IC50 ALK-wt [ATP](50 μM), 50 μM ATP",17.3 nM
same,IC50,"ALK-wt; IC50 ALK-wt [ATP](100 μM), 100 μM ATP",24 nM and 24.9 nM
same,IC50,"ALK-wt; radiometric kinase assay, 10 µM ATP, read-out: IC50 ALK-wt",< 0.5 nM
